Measured values reported in ChEMBL document CHEMBL1201862, “PubChem BioAssay data set” (2004).
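Results reflect a 48-hour exposure of cells in 96-well plates to compound at five concentrations. GI50 is the concentration that inhibits growth by half.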 Calls of active or inactive are those of the source. Cut-off read from the data, not from the text of the source: active = GI50 up to about 1.1 µM and inactive = higher.

Legend:
Assay in all cases: inhibition of tumour cell growth, NCI panel, 48 h
MOLT-4 = test system: MOLT-4
MDA-MB-435 = test system: MDA-MB-435
RXF 393 = test system: RXF 393
MCF7 = test system: MCF7
A498 = test system: A498
NCI-H522 = test system: NCI-H522
CCRF-CEM = test system: CCRF-CEM
HCT-116 = test system: HCT-116
U-251 = test system: U-251
TK-10 = test system: TK-10
Malme-3M = test system: Malme-3M
A549 = test system: A549
UACC-62 = test system: UACC-62
HCT-15 = test system: HCT-15
HOP-62 = test system: HOP-62
SR = test system: SR
SK-MEL-2 = test system: SK-MEL-2
PC-3 = test system: PC-3
SF-295 = test system: SF-295
SNB-75 = test system: SNB-75

Structure (SMILES) | GI50 (MOLT-4) | GI50 (MDA-MB-435) | GI50 (RXF 393) | GI50 (MCF7) | GI50 (A498) | GI50 (NCI-H522) | GI50 (CCRF-CEM) | GI50 (HCT-116) | GI50 (U-251) | GI50 (TK-10) | GI50 (Malme-3M) | GI50 (A549) | GI50 (UACC-62) | GI50 (HCT-15) | GI50 (HOP-62) | GI50 (SR) | GI50 (SK-MEL-2) | GI50 (PC-3) | GI50 (SF-295) | GI50 (SNB-75)
CC(C)C1=CC23CCC4C(C)(C(=O)O)CCCC4(C)C2CC1C1C(=O)N(CCCCCCN2C(=O)C4C5CC6C7(C)CCCC(C)(C(=O)O)C7CCC6(C=C5C(C)C)C4C2=O)C(=O)C13 (configuration not stated) | 6.17 µM (inactive) | 4.54 µM (inactive) | 14.2 µM (inactive) | 6.76 µM (inactive) | 11.6 µM (inactive) | 12 µM (inactive) | 7.29 µM (inactive) | 8.51 µM (inactive) | 4.08 µM (inactive) | 16.2 µM (inactive) | 16.7 µM (inactive) | 9.31 µM (inactive) | 37.8 µM (inactive) | 14.8 µM | > 10 µM (inactive) | 7.43 µM (inactive) | 13.8 µM (inactive) | 5.9 µM (inactive) |  | 
Clc1ccc(C(Cc2ccccc2)c2c(Cl)nc(N3CCNCC3)nc2Cl)cc1 (configuration not stated) | 4.01 µM (inactive) | 16.6 µM (inactive) |  | 5.38 µM (inactive) | 11.9 µM (inactive) | 12.4 µM (inactive) | 7.11 µM (inactive) | 8.38 µM (inactive) | 14 µM (inactive) | 17.5 µM (inactive) | 14.3 µM (inactive) | 16.1 µM (inactive) | 21 µM (inactive) | 4.06 µM | 15.7 µM (inactive) | 1.63 µM (inactive) | 16.8 µM (inactive) | 14.3 µM (inactive) | 19 µM (inactive) | 14.1 µM (inactive)
O=C1CSC(c2ccccc2O)N1c1ccc2c(c1)Oc1c(Cl)c3c(c(Cl)c1=N2)Oc1cc(N2C(=O)CSC2c2ccccc2O)ccc1N=3 (configuration not stated) | 2.55 µM (inactive) | 29.1 µM (inactive) | 17.1 µM (inactive) | 34 µM (inactive) | > 100 µM (inactive) | 20.6 µM (inactive) | 18.1 µM (inactive) | 30.6 µM (inactive) | 24.9 µM (inactive) | 62.5 µM (inactive) |  |  |  | > 100 µM | 28.6 µM (inactive) | 0.873 µM (active) | 47.6 µM (inactive) | 38.4 µM (inactive) | 42 µM (inactive) | 
COC(=O)Nc1nc2ccc(S(=O)(=O)SC)cc2[nH]1 | 2.89 µM (inactive) | 2.69 µM (inactive) | 5.46 µM (inactive) | 4.94 µM (inactive) | 16.3 µM (inactive) | 4.33 µM (inactive) | 3.52 µM (inactive) | 4.68 µM (inactive) | 5.51 µM (inactive) | 8.09 µM (inactive) | 9.89 µM (inactive) | 8.11 µM (inactive) | 3.9 µM (inactive) | 3.89 µM | 21.1 µM (inactive) | 3.72 µM (inactive) | 7.19 µM (inactive) | 4.42 µM (inactive) | 7.8 µM (inactive) | 
NC(=O)Cc1nc2c(N)ncnc2n1C1OC(CO)C(O)C1O (configuration not stated) | > 100 µM (inactive) | > 100 µM (inactive) |  | > 100 µM (inactive) | > 100 µM (inactive) | > 100 µM (inactive) | > 100 µM (inactive) | > 100 µM (inactive) | > 100 µM (inactive) | > 100 µM (inactive) | > 100 µM (inactive) | > 100 µM (inactive) | > 100 µM (inactive) | > 100 µM | > 100 µM (inactive) | > 100 µM (inactive) | > 100 µM (inactive) | > 100 µM (inactive) | > 100 µM (inactive) | 
COC(=O)CCc1ccc2c(c1)[C@H](C(=O)OC)[C@@H](c1ccc(O)cc1)O2 | 35.6 µM (inactive) | > 100 µM (inactive) |  | 72.9 µM (inactive) | > 100 µM (inactive) | 75.9 µM (inactive) | 59.2 µM (inactive) | 21.5 µM (inactive) | > 100 µM (inactive) | > 100 µM (inactive) | > 100 µM (inactive) | > 100 µM (inactive) | > 100 µM (inactive) | 58.9 µM | > 100 µM (inactive) | 93.5 µM (inactive) | > 100 µM (inactive) | > 100 µM (inactive) | > 100 µM (inactive) | 
C(=N\c1ccc(-c2cc(-c3ccccc3)nc3ccc4ccccc4c23)cc1)/c1ccccc1 | 18.6 µM (inactive) | 21.2 µM (inactive) | 9.68 µM (inactive) | 9.25 µM (inactive) | 26.7 µM (inactive) |  | 16 µM (inactive) | 16.6 µM (inactive) | 36.5 µM (inactive) | 22.3 µM (inactive) | 30.5 µM (inactive) | 13.6 µM (inactive) | 20.8 µM (inactive) | 8.26 µM | 20.9 µM (inactive) | 10.2 µM (inactive) |  | 13.2 µM (inactive) | 10.9 µM (inactive) | 1.18 µM (inactive)
FC1=C2CCCCCC2SC1(F)F (configuration not stated) | 16.4 µM (inactive) | 26.4 µM (inactive) | 13.3 µM (inactive) | 71.9 µM (inactive) |  | 15.6 µM (inactive) | 3.36 µM (inactive) | 37.8 µM (inactive) |  | 36.6 µM (inactive) | 21.9 µM (inactive) | > 100 µM (inactive) | > 100 µM (inactive) | 34.4 µM |  | 20.1 µM (inactive) | > 100 µM (inactive) | > 100 µM (inactive) | > 100 µM (inactive) | > 100 µM (inactive)
CC1(C)Oc2ccc3c(=O)cc(-c4ccc(F)cc4)oc3c2C1C(=O)O (configuration not stated) | > 100 µM (inactive) | > 100 µM (inactive) | > 100 µM (inactive) | > 100 µM (inactive) | > 100 µM (inactive) | > 100 µM (inactive) | > 100 µM (inactive) | > 100 µM (inactive) | > 100 µM (inactive) | > 100 µM (inactive) | > 100 µM (inactive) | > 100 µM (inactive) | > 100 µM (inactive) |  | > 100 µM (inactive) | > 100 µM (inactive) | > 100 µM (inactive) | > 100 µM (inactive) | > 100 µM (inactive) | 
CC1(C)OCC(C2OC3OC(C)(C)OC3C2c2ccccc2)O1 (configuration not stated) | 22.4 µM (inactive) | 37.8 µM (inactive) | 48.3 µM (inactive) | 50.7 µM (inactive) |  | 37.7 µM (inactive) | 30.5 µM (inactive) | 36.4 µM (inactive) | 78 µM (inactive) | 32.1 µM (inactive) | 42.2 µM (inactive) | 42.8 µM (inactive) | 27 µM (inactive) | 24.2 µM | 49 µM (inactive) | 28.8 µM (inactive) | 22.1 µM (inactive) | 24.3 µM (inactive) | > 100 µM (inactive) | 50.6 µM (inactive)
OC1=C(c2ccccc2)C2=NCCN2c2ccccc21 | 46.8 µM (inactive) | 39.1 µM (inactive) |  | 42.1 µM (inactive) | 98.4 µM (inactive) |  | 51.5 µM (inactive) | 34.7 µM (inactive) | 73.5 µM (inactive) | 94 µM (inactive) |  | 50.6 µM (inactive) | 29.2 µM (inactive) | 33.3 µM | 31.8 µM (inactive) | 87.3 µM (inactive) | 18.7 µM (inactive) | 38.1 µM (inactive) | 46.1 µM (inactive) | 23.1 µM (inactive)
